# Data: patent US20250376459A1, “CRYSTALLINE FORMS OF A TYK2 INHIBITOR AND USES THEREOF” (Alumis Inc., priority 2022, published 2025)
# Where a name gives a salt, the structure may show the parent alone. Read-outs that look alike come from different tables or passages of the source.
# How the values were obtained:
# Assay type in all cases: physicochemical
# [1] = solubility in SGF, FeSSIF, FaSSIF and water
# [2] = dynamic vapor sorption (DVS) analysis
# Experimental: Dynamic vapor sorption analysis (DVS) was performed on a DVS Intrinsic PLUS (SMS, UK). The sample was placed into a tared sample chamber and automatically weighed. The sample was dried at 40° C. until the dm/dt was less than 0.002% and cooled to 25° C. The instrument parameters were as follows: step time (min)=60 min; sample temperature=25 C; cycle=full cycle; adsorption (% RH)=0, 10, 20, 30, 40, 50, 60, 70, 80, 90; desorption (% RH)=80, 70, 60, 50, 40, 30, 20, 10, 0; saved data rate=5 sec; total flow rate=200 sccm; post experimental flow rate=200 sccm.
# [3] = solid form chemical and physical stability
# [4] = about 0% to about 80% RH at 25° C.
# [5] = about 0% to about 90% RH at 25° C.
SMILES,"salt dissociation in solubility media ([1]; FaSSIF, FeSSIF and water)","solubility ([1]; FaSSIF, read-out: solubility in FaSSIF)","solubility ([1]; FeSSIF, read-out: solubility in FeSSIF)","solubility ([1]; SGF, simulated gastric fluid, read-out: solubility in SGF)",hygroscopicity [2],"DVS reversable total mass change [2, 4]","DVS reversable total mass change [2, 5]",form change after DVS analysis [2],time chemically and physically stable in the solid form ([3]; 40° C./75% RH),time chemically and physically stable in the solid form ([3]; 60° C.)
"[2H]C([2H])([2H])CC(=O)c1cnc(NC(=O)C2CC2)cc1Nc1cccc(-c2ncn(C([2H])([2H])[2H])n2)c1OC [Form 1-1, N-(4-((2-methoxy-3-(1-(methyl-d3)-1H-1,2,4-triazol-3-yl)phenyl)amino)-5-(propanoyl-3,3,3-d3)pyridin-2-yl) cyclopropanecarboxamide, methanesulfonic acid salt]",dissociate to the free base,1 to 2 µg/mL,20 to 30 µg/mL,> 4100 µg/mL,only slightly hygroscopic,about 0.6 wt. %,about 1.3 wt. %,No form change,at least 10 days,at least 10 days
"[2H]C([2H])([2H])CC(=O)c1cnc(NC(=O)C2CC2)cc1Nc1cccc(-c2ncn(C([2H])([2H])[2H])n2)c1OC [Form 5-2, N-(4-((2-methoxy-3-(1-(methyl-d3)-1H-1,2,4-triazol-3-yl)phenyl)amino)-5-(propanoyl-3,3,3-d3)pyridin-2-yl) cyclopropanecarboxamide, sulfuric acid salt]",,,,,,about 0.9 wt. %,about 1.4 wt. %,No form change,,
"[2H]C([2H])([2H])CC(=O)c1cnc(NC(=O)C2CC2)cc1Nc1cccc(-c2ncn(C([2H])([2H])[2H])n2)c1OC [Form 6, N-(4-((2-methoxy-3-(1-(methyl-d3)-1H-1,2,4-triazol-3-yl)phenyl)amino)-5-(propanoyl-3,3,3-d3)pyridin-2-yl) cyclopropanecarboxamide, p-toluenesulfonic acid salt]",,,,,,about 0.6 wt. %,about 0.7 wt. %,No form change,,
